Data as given in publication PMC12030314, “Biomarker-Driven Pharmacokinetics and Efficacy of Polymyxin B in Critically Ill Patients with XDR-GN Pneumonia” (Pharmaceuticals, 2025).
Read-outs that look alike come from different tables or passages of the source. Where a SMILES comes first, the peptide text is derived from it. Bridges are numbered along the chain shown (N, C = ends). [ ]: non-standard residue; d: D form. The star is where a group is joined. X1 = CC[C@H](C)CCCCC(=O)*; Dab = NCC[C@H](N)C(=O)O

Assays:
[1] = cited from earlier work
[2] = Nephrotoxicity during PMB therapy; assay type: in vivo, human
Experimental: Patient characteristics and laboratory data, including age, sex, weight, medical history, Acute Physiology And Chronic Health Evaluation (APACHE) II score, Sequential Organ Failure Assessment (SOFA) score, estimated creatinine clearance, arterial blood gas analysis, life support interventions, infection site, and type of pathogen, were recorded before PMB administration. The anti-infection therapeutic regimen, course, and incidence of PMB-related adverse reactions were recorded during the study. The creatinine clearance rate (CCr) was calculated with the formula: Ccr = (140 − age) × weight (kg)/[72 × serum creatinine (mg/dL)] for male and Ccr = (140 − age) × weight(kg)/[85 × serum creatinine (mg/dL)] for female. Nephrotoxicity was defined as an increase in serum creatinine of ≥0.3 mg/dL within 48 h or an increase in serum creatinine to ≥1.5 times higher than baseline.

[3] = cited from earlier work; remark: listed apart in the source
Description: Colistin (colistin methanesulfonate, CMS) and polymyxin B (PMB) are polymyxins that were approved for clinical use in the 1950s worldwide. Colistin is clinically administered as a prodrug, which requires conversion to the active form in vivo. […] The elimination of colistin is primarily dependent on renal function. Patients with renal impairment are prone to drug accumulation and increased nephrotoxicity risk. PMB is ... || Finally, we cannot rule out the possibility of the potential impacts of other combined drugs on PMB PK and the heterogeneity among the patients in our study. To date, little evidence supports the conclusion that the combined use of other drugs affects PMB PK. Studies have shown that urinary recovery from PMB is low (<5%). […] Further studies examining the nonrenal routes of PMB elimination are warranted, ...

[4] = test system: plasma protein; assay: Binding of PMB in plasma, rapid equilibrium dialysis; assay type: in vitro ADME; details: human, rapid equilibrium dialysis (Pierce RED), pooled patient plasma pH 7.4, 300 μL against PBS pH 7.4, 37 °C, triplicate, mean, read-out: plasma protein-binding ratio (converted)
Experimental: The plasma protein binding of PMB was determined by rapid equilibrium dialysis device purchased from Thermo Scientific™ (Pierce RED, CAS90006, Rockford, IL, USA). For each patient, three plasma samples (totaling approximately 1 ml) were pooled (pH adjusted to 7.4), and the test was performed in triplicate. For each, 300 μL was dialyzed against an equal volume of isotonic phosphate-buffered saline (pH 7.4) at 37 °C for 4 h. PMB concentrations were determined, and the extent of protein binding was calculated as 1 minus the ratio of the PMB concentration in the buffer to that in the plasma and is expressed as a percentage.

[5] = Asian and American patients, one-compartment model, ref Manchandani et al., 2018 [47]
[6] = Asian and American patients, ref Manchandani et al., 2018 [47]
[7] = Brazilian, Australian critically ill patients, ref Sandri et al., 2013 [48]
[8] = Chinese MDR Gram-negative infected patients, ref Wang et al., 2020 [50]
[9] = Chinese critically ill patients, CRO nosocomial pneumonia, ref Tang et al., 2023 [59]
[10] = Chinese critically ill patients, CRO nosocomial pneumonia, ref Zhang et al., 2023 [60]
[11] = Chinese critically ill patients, ref Pi et al., 2023 [57]
[12] = Chinese patients with CRKP bloodstream infections, ref Yu et al., 2022 [56]
[13] = Chinese patients with various renal functions, 100–200 mg/day, ref Yu et al., 2020 [51]
[14] = ECMO, Russian critically ill patients, ref Surovoy et al., 2022 [53]
[15] = Non-ECMO, Russian critically ill patients, ref Surovoy et al., 2022 [53]
[16] = Renal insufficiency, Thai, American patients, ref Thamlikitkul et al., 2016 [52]

**Q.** For `CC[C@H](C)CCCCC(=O)N[C@@H](CCN)C(=O)N[C@H](C(=O)N[C@@H](CCN)C(=O)N[C@H]1CCNC(=O)[C@H]([C@@H](C)O)NC(=O)[C@H](CCN)NC(=O)[C@H](CCN)NC(=O)[C@H](CC(C)C)NC(=O)[C@@H](Cc2ccccc2)NC(=O)[C@H](CCN)NC1=O)[C@@H](C)O` [PMB, polymyxin B] (X1-[Dab]T[Dab][Dab][Dab][dF]L[Dab][Dab]T; lactam 4-C), which V1 ([1]; American acutely ill patients, Gram-negative infection, loading 2.5 to 3 mg/kg, maintenance 2.8 mg/kg/day, one-compartment model, ref Kubin et al., 2018 [46]) is on record?
**A.** 34.4 L

**Q.** What about the V2 ([1]; American acutely ill patients, Gram-negative infection, two-compartment model, ref Miglis et al., 2018 [45]) of the same compound?
**A.** 78.20 L

**Q.** What about the CL ([1]; American critically ill patients with Gram-negative infections) of the same compound?
**A.** approximately 2.5 L/h

**Q.** What about the V [1, 5] of the same compound?
**A.** 34.3 L

**Q.** And the t1/2 [1, 5]?
**A.** 10.1 h

**Q.** What about the “AUC in patients with nephrotoxicity” value [1, 6] of the same compound?
**A.** 52300 ng·h/mL

**Q.** And the “AUC in patients without nephrotoxicity” value [1, 6]?
**A.** 45100 ng·h/mL

**Q.** And the “AUCss,0–24h” value ([1]; Brazilian, Australian critically ill patients, 0.45–3.38 mg/kg/day, nonlinear mixed-effects model (PMB1 and PMB2), ref Sandri et al., 2013 [48])?
**A.** 66900 ng·h/mL

**Q.** What about the CL [1, 7] of the same compound?
**A.** 0.46 mL/min/kg

**Q.** And the “Css,avg” value [1, 7]?
**A.** 2790 ng/mL

**Q.** What about the V1 [1, 7] of the same compound?
**A.** 0.0939 L/kg

**Q.** What about the V2 [1, 7] of the same compound?
**A.** 0.330 L/kg

**Q.** And the “AUCss,0–24h” value ([1]; Chinese MDR Gram-negative infected patients, all, ref Wang et al., 2021 [49])?
**A.** 80140 ng·h/mL

**Q.** What about the V1 ([1]; Chinese MDR Gram-negative infected patients, 100 to 200 mg/day, one- and two-compartment models, ref Wang et al., 2020 [50]) of the same compound?
**A.** 6.218 L

**Q.** What about the “AUCss,0–12 h” value [1, 8] of the same compound?
**A.** 43640 ng·h/mL

**Q.** And the CL [1, 8]?
**A.** 1.786 L/h

**Q.** And the V2 [1, 8]?
**A.** 11.922 L

**Q.** And the “Css,avg” value ([1]; Chinese MDR Gram-negative infected patients, ref Wang et al., 2021 [49])?
**A.** 3330 ng/mL

**Q.** What about the “AUCss,0–24h” value [1, 9] of the same compound?
**A.** 67200 ng·h/mL

**Q.** And the “Cmax,ss” value [1, 9]?
**A.** 5900 ng/mL

**Q.** What about the “Cmin,ss” value [1, 9] of the same compound?
**A.** 1900 ng/mL

**Q.** And the V1 [1, 9]?
**A.** 12.5 ± 5.67 L

**Q.** And the V2 [1, 9]?
**A.** 29.9 ± 17.3 L

**Q.** And the “AUCss,0–24h” value [1, 10]?
**A.** 67200 ng·h/mL

**Q.** What about the “Cmax,ss” value [1, 10] of the same compound?
**A.** 5900 ng/mL

**Q.** What about the “Cmin,ss” value [1, 10] of the same compound?
**A.** 1900 ng/mL

**Q.** What about the V1 [1, 10] of the same compound?
**A.** 12.5 L

**Q.** What about the V2 [1, 10] of the same compound?
**A.** 29.9 L

**Q.** What about the CL [1, 11] of the same compound?
**A.** 1.67 L/h

**Q.** And the Cmax [1, 11]?
**A.** 4590 ng/mL

**Q.** What about the V1 [1, 11] of the same compound?
**A.** 7.857 L

**Q.** What about the V2 [1, 11] of the same compound?
**A.** 12.668 L

**Q.** And the t1/2 [1, 11]?
**A.** 5.29 h

**Q.** What about the “AUCss,0–24h” value [1, 12] of the same compound?
**A.** 79600 ng·h/mL

**Q.** And the CL [1, 12]?
**A.** 1.6 L/h

**Q.** What about the “Css,avg” value [1, 12] of the same compound?
**A.** 3350 ng/mL

**Q.** And the V1 [1, 12]?
**A.** 38.6 L

**Q.** And the V2 [1, 12]?
**A.** 7.13 L

**Q.** What about the “AUCss,0–24h” value ([1]; Chinese patients with CRO infections, 1.5–3.0 mg/kg/day, two-compartment model, ref Yang et al., 2022 [55]) of the same compound?
**A.** 58500 ng·h/mL

**Q.** And the C0 h ([1]; Chinese patients with CRO infections, ref Yang et al., 2022 [55])?
**A.** 1240 ng/mL

**Q.** And the V1 ([1]; Chinese patients with severe CRO infections, loading 1.73, maintain 2.22 mg/kg/day, two-compartment model, ref Luo et al., 2022 [54])?
**A.** 11.7 L

**Q.** What about the “AUCss,0–24h” value ([1]; Chinese patients with severe pneumonia, 50 mg every 12 h (infusion for 1 h), noncompartment model, ref Chen et al., 2021 [58]) of the same compound?
**A.** 72700 ng·h/mL

**Q.** And the t1/2 ([1]; Chinese patients with severe pneumonia, 50 mg every 12 h, ref Chen et al., 2021 [58])?
**A.** 8.69 h

**Q.** What about the CL [1, 13] of the same compound?
**A.** 1.59 L/h

**Q.** And the Vd [1, 13]?
**A.** 20.5 L

**Q.** And the “AUCss,0–12 h” value ([1]; ECMO, Russian critically ill patients, COVID-19-associated pneumonia, loading 200–300 mg, 2.5–3 mg/kg/day, noncompartmental, ELISA, ref Surovoy et al., 2022 [53])?
**A.** 43380 ng·h/mL

**Q.** And the “AUCss,0–24h” value [1, 14]?
**A.** 96800 ng·h/mL

**Q.** What about the “CSS,avg” value [1, 14] of the same compound?
**A.** 4.03 mg/L

**Q.** And the Cmax [1, 14]?
**A.** 5960 ng/mL

**Q.** And the Cmin [1, 14]?
**A.** 2400 ng/mL

**Q.** What about the Tmax [1, 14] of the same compound?
**A.** 5 ± 24 min

**Q.** What about the Vd [1, 14] of the same compound?
**A.** 19.73 L

**Q.** What about the Cmin ([1]; Following the loading dose, Chinese patients with CRKP bloodstream infections, loading 2.5 mg/kg, 1.25 mg/kg every 12 h, ref Yu et al., 2022 [56]) of the same compound?
**A.** 1620 ng/mL

**Q.** And the Cmax ([1]; Following the loading dose, Chinese patients with CRKP bloodstream infections, ref Yu et al., 2022 [56])?
**A.** 5530 ng/mL

**Q.** And the CL ([1]; Non-CRRT, Chinese patients with severe CRO infections, ref Luo et al., 2022 [54])?
**A.** 1.5 L/h

**Q.** What about the “AUCss,0–12 h” value [1, 15] of the same compound?
**A.** 34700 ng·h/mL

**Q.** What about the CL [1, 15] of the same compound?
**A.** 1.76 L/h

**Q.** What about the “CSS,avg” value [1, 15] of the same compound?
**A.** 2.9 mg/L

**Q.** What about the Cmax [1, 15] of the same compound?
**A.** 5080 ng/mL

**Q.** What about the Cmin [1, 15] of the same compound?
**A.** 2150 ng/mL

**Q.** And the Vd [1, 15]?
**A.** 30.4 L

**Q.** What about the “AUCss,0–24h” value ([1]; Normal renal function, Chinese patients, ref Wang et al., 2021 [49]) of the same compound?
**A.** 68630 ng·h/mL

**Q.** And the AUC ([1]; Normal renal function, Thai, American patients, 1.5–2.5 mg/kg/day, ref Thamlikitkul et al., 2016 [52])?
**A.** 63500 ng·h/mL

**Q.** What about the CL ([1]; Normal renal function, Thai, American patients, ref Thamlikitkul et al., 2016 [52]) of the same compound?
**A.** 2.5 ± 0.4 L/h

**Q.** What about the “AUCss,0–24h” value ([1]; Renal insufficiency, Chinese patients, ref Wang et al., 2021 [49]) of the same compound?
**A.** 93040 ng·h/mL

**Q.** What about the AUC [1, 16] of the same compound?
**A.** 56000 ng·h/mL

**Q.** What about the CL [1, 16] of the same compound?
**A.** 2.0 L/h

**Q.** What about the CL ([1]; human, in vivo) of the same compound?
**A.** 1.95 L/h

**Q.** What about the Cmax ([1]; human, in vivo) of the same compound?
**A.** 5500 ng/mL

**Q.** What about the CL ([1]; in vivo, 0.4 mg/kg/day) of the same compound?
**A.** 2.5 ± 1.1 L/h

**Q.** What about the “Css,avg” value ([1]; in vivo) of the same compound?
**A.** 1480 ng/mL

**Q.** And the V2 ([1]; in vivo)?
**A.** 17.9 L

**Q.** And the Nephrotoxicity ([2]; Total (n = 27), serum creatinine increase ≥0.3 mg/dL within 48 h or ≥1.5 times baseline)?
**A.** 4 (14.81) n (%)

**Q.** And the “number of patients who suffered from nephrotoxicity” value ([2]; when PMB medication was administered, 27 patients)?
**A.** four

**Q.** And the urinary recovery [3]?
**A.** < 5%

**Q.** What about the “hepatobiliary metabolism (non-renal clearance)” value ([3]; in vivo) of the same compound?
**A.** ~60%

**Q.** And the fraction unbound at 4 h [4]?
**A.** 0.145
